According to patent publication EP4800012A1, “COMPOUND ACTING AS PARP7 INHIBITOR” (Dovetree Medicines Unus, Inc., priority 2023, dated 2025):
Where two headings read alike, the source gives them in different places.

How the values were obtained:
NCI-H1373 cells = experiment: Inhibition on NCI-H1373 cell proliferation (Cell-Titer-Glo); type: cell-based; settings: Homo sapiens, 144 h; NCI-H1373 cells, incubation for 6 days, Cell-Titer-Glo; read-out: NCI-H1373 cell proliferation inhibition IC50
PARP1 = PARP1 (Homo sapiens, UniProt P09874); experiment: PARP1 in vitro enzyme activity inhibition (chemiluminescence assay); type: biochemical
Experimental: (§1) Following the method in test example 1, the IC50 value of the inhibition of each compound on PARP7 activity were detected and obtained. Reference was made to the method in test example 1, except that the 6.25 nM of PARP7 solution in the ribosylation reaction step was replaced with a 5 nM of PARP1 solution or a 5 nM of PARP2. Similar to the 6.25 nM of PARP7 solution, the 5 nM of PARP1 solution and 5 nM of PARP2 solution were also formulated and obtained by using 1× Assay buffer.

PARP7 [1] = biological target: T1, PARP7 (Homo sapiens, UniProt Q7Z3E1); experiment: Inhibition of the compound on PARP7 protein activity (ADP-ribosylation, chemiluminescence); type: biochemical
T1 construct: purchased BPS 80527
T1 sequence (Q7Z3E1 1-657): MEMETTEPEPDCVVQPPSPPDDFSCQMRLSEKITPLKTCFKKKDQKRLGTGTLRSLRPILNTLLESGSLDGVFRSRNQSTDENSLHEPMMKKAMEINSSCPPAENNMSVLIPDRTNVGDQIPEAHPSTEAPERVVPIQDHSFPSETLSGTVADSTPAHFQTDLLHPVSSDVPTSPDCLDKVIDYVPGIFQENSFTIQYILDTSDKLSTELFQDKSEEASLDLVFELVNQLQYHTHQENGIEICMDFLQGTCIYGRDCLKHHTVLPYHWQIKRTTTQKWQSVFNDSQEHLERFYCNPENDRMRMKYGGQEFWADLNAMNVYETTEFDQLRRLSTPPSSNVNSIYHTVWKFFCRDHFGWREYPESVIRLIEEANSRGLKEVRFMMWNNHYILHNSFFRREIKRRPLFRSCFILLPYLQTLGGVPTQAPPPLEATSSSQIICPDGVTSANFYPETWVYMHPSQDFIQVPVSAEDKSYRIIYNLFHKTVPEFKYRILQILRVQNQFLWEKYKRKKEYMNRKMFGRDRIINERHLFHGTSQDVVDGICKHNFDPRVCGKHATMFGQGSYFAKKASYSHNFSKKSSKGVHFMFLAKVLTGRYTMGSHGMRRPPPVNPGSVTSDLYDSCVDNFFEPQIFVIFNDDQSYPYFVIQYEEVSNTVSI

PARP7 [2] = biological target: T1, PARP7; experiment: PARP7 TR-FRET binding inhibition (displacement of probe RBN011147)
Experimental: The ability of the compound to substitute the probe RBN011147 (Wigle et al., 2020, Cell Chemical Biology 27, 877-887) was tested by a TR-FRET method, and IC50 was calculated to evaluate the binding ability of the compound to PARP7. […]

PARP7 [3] = biological target: T1, PARP7; experiment: PARP7 in vitro enzyme activity inhibition (chemiluminescence assay, selectivity test); type: biochemical
Experimental: as §1

PARP2 = PARP2 (Homo sapiens, UniProt Q9UGN5); experiment: PARP2 in vitro enzyme activity inhibition (chemiluminescence assay); type: biochemical
Experimental: as §1

[4] = 5 nM of PARP1 solution, method of test example 1; read-out: PARP1 activity inhibition IC50
[5] = Histone H1 coated plate, Biotin-Labeled NAD+, 2 h at room temperature, chemiluminescence; read-out: PARP7 activity inhibition IC50
[6] = TR-FRET, Biotin-labeled probe RBN011147; read-out: PARP7 binding inhibition IC50
[7] = 6.25 nM of PARP7 solution, method of test example 1; read-out: PARP7 activity inhibition IC50
[8] = 5 nM of PARP2, method of test example 1; read-out: PARP2 activity inhibition IC50

PARP1, sequence (P09874 whole entry, species assumed): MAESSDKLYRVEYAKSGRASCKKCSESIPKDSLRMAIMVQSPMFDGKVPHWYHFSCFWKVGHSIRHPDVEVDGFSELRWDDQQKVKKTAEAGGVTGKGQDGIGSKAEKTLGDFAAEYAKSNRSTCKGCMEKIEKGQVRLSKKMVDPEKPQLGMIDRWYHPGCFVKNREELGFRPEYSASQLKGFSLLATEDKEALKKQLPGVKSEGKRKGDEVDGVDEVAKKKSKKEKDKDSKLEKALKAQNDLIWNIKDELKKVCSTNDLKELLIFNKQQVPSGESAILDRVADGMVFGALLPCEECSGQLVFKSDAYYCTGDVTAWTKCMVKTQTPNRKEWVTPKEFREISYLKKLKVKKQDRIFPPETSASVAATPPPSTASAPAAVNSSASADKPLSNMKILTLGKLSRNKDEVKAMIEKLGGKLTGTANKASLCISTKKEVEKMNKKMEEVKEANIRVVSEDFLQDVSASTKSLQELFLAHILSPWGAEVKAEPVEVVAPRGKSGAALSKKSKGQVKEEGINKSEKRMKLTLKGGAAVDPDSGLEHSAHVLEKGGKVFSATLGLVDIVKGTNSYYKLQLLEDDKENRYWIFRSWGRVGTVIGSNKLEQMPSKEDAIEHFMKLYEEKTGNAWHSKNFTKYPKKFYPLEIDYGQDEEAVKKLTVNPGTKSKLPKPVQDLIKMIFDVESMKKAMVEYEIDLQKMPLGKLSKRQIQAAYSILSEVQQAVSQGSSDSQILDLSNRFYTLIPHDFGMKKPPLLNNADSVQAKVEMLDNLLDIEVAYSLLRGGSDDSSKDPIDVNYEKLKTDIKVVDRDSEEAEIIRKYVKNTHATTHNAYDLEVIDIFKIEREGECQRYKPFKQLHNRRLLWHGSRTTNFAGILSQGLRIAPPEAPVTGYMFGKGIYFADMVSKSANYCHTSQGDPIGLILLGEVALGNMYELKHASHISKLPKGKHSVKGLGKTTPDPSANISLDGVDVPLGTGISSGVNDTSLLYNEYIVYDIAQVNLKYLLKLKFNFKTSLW
PARP2, sequence (Q9UGN5 whole entry, species assumed): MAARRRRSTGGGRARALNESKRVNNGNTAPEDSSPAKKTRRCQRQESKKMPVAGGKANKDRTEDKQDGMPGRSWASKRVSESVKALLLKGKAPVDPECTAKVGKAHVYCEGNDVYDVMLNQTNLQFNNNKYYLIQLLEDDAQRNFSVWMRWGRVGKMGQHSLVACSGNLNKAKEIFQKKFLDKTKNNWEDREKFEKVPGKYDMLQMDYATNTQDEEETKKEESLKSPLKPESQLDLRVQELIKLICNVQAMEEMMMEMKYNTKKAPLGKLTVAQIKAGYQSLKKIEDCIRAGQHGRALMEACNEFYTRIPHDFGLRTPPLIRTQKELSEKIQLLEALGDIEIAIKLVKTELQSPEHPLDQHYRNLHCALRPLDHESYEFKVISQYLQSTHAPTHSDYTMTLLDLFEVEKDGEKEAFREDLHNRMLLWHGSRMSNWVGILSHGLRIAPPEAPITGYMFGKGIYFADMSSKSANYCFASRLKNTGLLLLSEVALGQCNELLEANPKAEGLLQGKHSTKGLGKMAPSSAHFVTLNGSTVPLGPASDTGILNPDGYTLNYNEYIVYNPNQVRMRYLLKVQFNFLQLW

## O=C(CCc1c[nH]c(=O)c(C(F)(F)F)c1N1CC2(CCC2)C1)Nc1ccc(-c2ncc(C(F)(F)F)s2)cn1 [Example 69]
NCI-H1373 cells
  IC50: > 3000 nM
PARP1; [4]
  IC50: > 100 nM
PARP7 [1]; [5]
  IC50: < 3 nM
PARP7 [2]; [6]
  IC50: < 10 nM
PARP7 [3]; [7]
  IC50: < 3 nM
PARP2; [8]
  IC50: > 100 nM

## COC1(C)CN(C(=O)[C@@H](CCCNC(=O)c2ccc(-c3ncc(C(F)(F)F)s3)cc2)Nc2cn[nH]c(=O)c2C(F)(F)F)C1 [Example 246]
NCI-H1373 cells
  IC50: 1000 to 3000 nM
PARP1; [4]
  IC50: 10 to 30 nM
PARP7 [1]; [5]
  IC50: < 3 nM
PARP7 [2]; [6]
  IC50: < 10 nM
PARP7 [3]; [7]
  IC50: < 3 nM
PARP2; [8]
  IC50: 3 to 10 nM

## O=C(NCCC[C@@H](Nc1cn[nH]c(=O)c1C(F)(F)F)C(=O)N1CC(Cl)C1)c1ccc(-c2ncc(C(F)(F)F)s2)cc1 [Example 224]
NCI-H1373 cells
  IC50: < 300 nM
PARP1; [4]
  IC50: 3 to 10 nM
PARP7 [1]; [5]
  IC50: < 3 nM
PARP7 [2]; [6]
  IC50: < 10 nM
PARP7 [3]; [7]
  IC50: < 3 nM
PARP2; [8]
  IC50: 10 to 30 nM

## CC1(F)CN(C(=O)[C@@H](CCCNC(=O)c2ccc(-c3ncc(C(F)(F)F)s3)cc2)Nc2cn[nH]c(=O)c2C(F)(F)F)C1 [Example 242]
NCI-H1373 cells
  IC50: 1000 to 3000 nM
PARP1; [4]
  IC50: 30 to 100 nM
PARP7 [1]; [5]
  IC50: 3 to 10 nM
PARP7 [2]; [6]
  IC50: 10 to 30 nM
PARP7 [3]; [7]
  IC50: 3 to 10 nM
PARP2; [8]
  IC50: 3 to 10 nM

## O=C(NCCCC(Nc1cn[nH]c(=O)c1C(F)(F)F)C(=O)N1CCCC1)c1ccc(-c2ncc(C(F)(F)F)s2)cc1 (stereo not drawn) [Example 86]
NCI-H1373 cells
  IC50: < 300 nM
PARP1; [4]
  IC50: 10 to 30 nM
PARP7 [1]; [5]
  IC50: < 3 nM
PARP7 [2]; [6]
  IC50: < 10 nM
PARP7 [3]; [7]
  IC50: < 3 nM
PARP2; [8]
  IC50: 3 to 10 nM

## O=C(NCCCC(Nc1cn[nH]c(=O)c1C(F)(F)F)C(=O)N1CCOCC1)c1cnc(-c2ncc(C(F)(F)F)cn2)cn1 (stereo not drawn) [Example 90]
NCI-H1373 cells
  IC50: > 3000 nM
PARP1; [4]
  IC50: 30 to 100 nM
PARP7 [1]; [5]
  IC50: < 3 nM
PARP7 [2]; [6]
  IC50: 30 to 100 nM
PARP7 [3]; [7]
  IC50: < 3 nM
PARP2; [8]
  IC50: 30 to 100 nM

## O=C(NCCC[C@@H](Nc1cn[nH]c(=O)c1C(F)(F)F)C(=O)N1CC[C@@H](F)C1)c1ccc(-c2ncc(C(F)(F)F)s2)cc1 [Example 222]
NCI-H1373 cells
  IC50: < 300 nM
PARP1; [4]
  IC50: 10 to 30 nM
PARP7 [1]; [5]
  IC50: < 3 nM
PARP7 [2]; [6]
  IC50: < 10 nM
PARP7 [3]; [7]
  IC50: < 3 nM
PARP2; [8]
  IC50: < 3 nM

## CN(C(=O)[C@@H](CCCNC(=O)c1ccc(-c2ncc(C(F)(F)F)s2)cc1)Nc1cn[nH]c(=O)c1C(F)(F)F)C1CC1 [Example 223]
NCI-H1373 cells
  IC50: < 300 nM
PARP1; [4]
  IC50: 3 to 10 nM
PARP7 [1]; [5]
  IC50: 3 to 10 nM
PARP7 [2]; [6]
  IC50: < 10 nM
PARP7 [3]; [7]
  IC50: 3 to 10 nM
PARP2; [8]
  IC50: 30 to 100 nM

## O=C(NCCCC(Nc1cn[nH]c(=O)c1C(F)(F)F)C(=O)N1CCOCC1)c1ccc(-c2ncc(C(F)(F)F)s2)cc1 (stereo not drawn) [Example 88]
NCI-H1373 cells
  IC50: 300 to 1000 nM
PARP1; [4]
  IC50: 30 to 100 nM
PARP7 [1]; [5]
  IC50: < 3 nM
PARP7 [2]; [6]
  IC50: < 10 nM
PARP7 [3]; [7]
  IC50: < 3 nM
PARP2; [8]
  IC50: 3 to 10 nM

## N#CC1CCN(C(=O)[C@@H](CCCNC(=O)c2ccc(-c3ncc(C(F)(F)F)s3)cc2)Nc2cn[nH]c(=O)c2C(F)(F)F)CC1 [Example 243]
NCI-H1373 cells
  IC50: > 3000 nM
PARP1; [4]
  IC50: 3 to 10 nM
PARP7 [1]; [5]
  IC50: < 3 nM
PARP7 [2]; [6]
  IC50: < 10 nM
PARP7 [3]; [7]
  IC50: < 3 nM
PARP2; [8]
  IC50: 3 to 10 nM

## C[C@@H]1COCCN1C(=O)[C@@H](CCCNC(=O)c1ccc(-c2ncc(C(F)(F)F)s2)cc1)Nc1cn[nH]c(=O)c1C(F)(F)F [Example 238]
NCI-H1373 cells
  IC50: 300 to 1000 nM
PARP1; [4]
  IC50: 30 to 100 nM
PARP7 [1]; [5]
  IC50: < 3 nM
PARP7 [2]; [6]
  IC50: < 10 nM
PARP7 [3]; [7]
  IC50: < 3 nM
PARP2; [8]
  IC50: 10 to 30 nM

## CC(C)(C)NC(=O)[C@@H](CCCNC(=O)c1ccc(-c2ncc(C(F)(F)F)s2)cc1)Nc1cn[nH]c(=O)c1C(F)(F)F [Example 221]
NCI-H1373 cells
  IC50: < 300 nM
PARP1; [4]
  IC50: > 100 nM
PARP7 [1]; [5]
  IC50: < 3 nM
PARP7 [2]; [6]
  IC50: < 10 nM
PARP7 [3]; [7]
  IC50: < 3 nM
PARP2; [8]
  IC50: 3 to 10 nM

## CCNC(=O)C(CCCNC(=O)c1ccc(-c2ncc(C(F)(F)F)s2)cc1)Nc1cn[nH]c(=O)c1C(F)(F)F (stereo not drawn) [Example 231]
NCI-H1373 cells
  IC50: < 300 nM
PARP1; [4]
  IC50: 10 to 30 nM
PARP7 [1]; [5]
  IC50: < 3 nM
PARP7 [2]; [6]
  IC50: < 10 nM
PARP7 [3]; [7]
  IC50: < 3 nM
PARP2; [8]
  IC50: 3 to 10 nM

## O=C(CCc1c[nH]c(=O)c(C(F)(F)F)c1N1CC2(CCC2)C1)Nc1ccc(-c2ncc(C(F)(F)F)cn2)cn1 [Example 70]
NCI-H1373 cells
  IC50: > 3000 nM
PARP1; read-out: PARP1 activity inhibition IC50; 5 nM of PARP1 solution, method of test example 1
  IC50: > 100 nM
PARP7 [1]; read-out: PARP7 activity inhibition IC50; Histone H1 coated plate, Biotin-Labeled NAD+, 2 h at room temperature, chemiluminescence
  IC50: 3 to 10 nM
PARP7 [2]; read-out: PARP7 binding inhibition IC50; TR-FRET, Biotin-labeled probe RBN011147
  IC50: < 10 nM
PARP7 [3]; read-out: PARP7 activity inhibition IC50; 6.25 nM of PARP7 solution, method of test example 1
  IC50: 3 to 10 nM
PARP2; read-out: PARP2 activity inhibition IC50; 5 nM of PARP2, method of test example 1
  IC50: > 100 nM

## CC1CN(C(=O)[C@@H](CCCNC(=O)c2ccc(-c3ncc(C(F)(F)F)s3)cc2)Nc2cn[nH]c(=O)c2C(F)(F)F)C1 [Example 233]
NCI-H1373 cells
  IC50: 300 to 1000 nM
PARP1; [4]
  IC50: 3 to 10 nM
PARP7 [1]; [5]
  IC50: < 3 nM
PARP7 [2]; [6]
  IC50: < 10 nM
PARP7 [3]; [7]
  IC50: < 3 nM
PARP2; [8]
  IC50: < 3 nM
